For data set [1] the following is noted: cited from earlier work.
In data set [2] the test system is CYP2A6. The experiment in a line: In vivo phenotype assay: plasma kinetics of nicotine and coumarin after oral administration by CYP2A6 genotype. Conditions: both, human, 4 mg, plasma nicotine, 90 min after nicotine 4.0 mg oral. Here is the method: The plasma kinetics of nicotine and coumarin were compared after oral administration in 10 smokers and 9 non-smokers (12 males, 7 females) of known CYP2A6 genotype. The dose of nicotine was 4.0 mg (expressed as base) and the dose of coumarin was 50 mg. The plasma concentration of nicotine, cotinine, coumarin and 7-OH-coumarin were measured as described above.

Data set [3] concerns the target T1, CYP2A6 (Homo sapiens, UniProt P11509).
T1 sequence (P11509 1-494): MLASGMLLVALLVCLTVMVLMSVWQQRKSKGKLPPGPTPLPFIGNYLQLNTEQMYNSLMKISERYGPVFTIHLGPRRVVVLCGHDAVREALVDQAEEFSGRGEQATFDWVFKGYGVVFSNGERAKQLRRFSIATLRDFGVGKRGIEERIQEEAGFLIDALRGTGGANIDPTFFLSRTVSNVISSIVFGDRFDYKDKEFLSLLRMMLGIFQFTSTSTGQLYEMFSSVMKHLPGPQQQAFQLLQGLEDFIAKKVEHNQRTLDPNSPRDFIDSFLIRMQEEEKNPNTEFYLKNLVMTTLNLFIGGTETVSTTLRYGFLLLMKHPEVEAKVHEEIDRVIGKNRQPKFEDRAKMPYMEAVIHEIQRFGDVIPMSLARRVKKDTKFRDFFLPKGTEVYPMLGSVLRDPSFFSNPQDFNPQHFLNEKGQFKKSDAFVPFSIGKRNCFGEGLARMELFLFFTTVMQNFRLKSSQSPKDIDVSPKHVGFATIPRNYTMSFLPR
The experiment in a line: In vitro inhibition of nicotine metabolism in expressed CYP2A6.

For data set [4], the target named is T1, CYP2A6. Conditions: nicotine 4.0 mg p.o.; for increase in plasma nicotine: p<0.01.
The target of data set [5] is T1, CYP2A6. The experiment in a line: Effect of methoxsalen on nicotine metabolism in tobacco dependent smokers (Example 6). In kind it is in vivo. On the set-up: from tissue; host or cells: human smokers in vivo (hepatic CYP2A6). Conditions: methoxsalen 10 mg t.i.d. p.o. The protocol: Subjects were recruited only if they smoked at least 15 cigarette per day, and were required to smoke the same number of cigarettes each day, on all four study days. During assessment, blood was taken to be analyzed for plasma nicotine and cotinine levels, as well as for CYP2A6 genotyping. Breath carbon monoxide was also measured.
During each study day a smoking log was completed. This log asked subjects to document the number of cigarette smoked from 8:00 a.m. to […]., and 10:00 p.m. to 8:00 a.m. Study days 1 and 2 could be separated, but days 2, 3 and 4 were required to be consecutive.
On both study days 1 (placebo) and 4 (treatment), a 24 h urine collection was initiated on waking. At 2:00 p.m. blood was drawn for nicotine and cotinine analysis and breath carbon monoxide was measured. […] Urine samples can be analyzed for 24 h NNAL, NNAL glucuronide, creatinine and cotinine.

The target of data set [6] is T1, CYP2A6. The experiment in a line: Effect of esculetin on nicotine metabolism by human liver microsomes. The data set is classed as biochemical. On the set-up: from tissue; host or cells: human smokers in vivo (hepatic CYP2A6). Conditions: FIG. 19. Here is the method:
Nicotine metabolism was monitored in vitro. Inhibitor assessment was carried out by comparing the assay including 50 μl tris buffer with the extracts prepared in Example 11 (50 μl, diluted in tris buffer). Human liver microsomes or CYP2A6 microsomes were used. The concentration of inhibitor in Hypericum was calculated on the basis of an apparent molecular weight of the inhibitor of 504 and a concentration of 0.3% active material in the plant material when diluting to yield concentrations of […] μM.
• Substrate 80 μM (50 μl tris buffer) • NADPH1 mM (50 μl tris buffer) • Microsomes 80 μg (30 μl tris buffer) • Cytosol (rat) 20 μl (tris buffer) • Tris buffer 50 μl (pH7.4) • Final volume […] Incubation Procedure:
The incubation was carried out at 37° C. for 30 min. An internal standard (50 μl, caffeine, 0.05 mg/ml) was added to the incubation mixture, followed by DCM (1 ml). The mixture was shaken for 10 min and centrifuged for 5 min at 3,000 g. The top layer was aspirated. HC1 (0.01 N, 100 μl) was added, followed by shaking for 1 min, then centrifuge for 5 min at 3,000 g. 30 μl of the HCl layer was injected for HPLC. […]

For data set [7], the target named is T1, CYP2A6. The experiment in a line: Inhibition of nicotine metabolism to cotinine in test livers. The data set is classed as biochemical. On the set-up: from tissue; host or cells: human smokers in vivo (hepatic CYP2A6).

SMILES strings stand for the structures. Like-named read-outs stand apart in the source and are kept apart here.

For `CN1CCCC1c1cccnc1` (stereo not drawn) [nicotine], the “share of nicotine metabolized to the inactive metabolite cotinine” value in data set [1] (in humans) is on record as 60-85%. For the same compound, the “share of nicotine metabolized by CYP2A6 in vivo” value in data set [1] (in vivo) is reported as “approximately 75%”. For the same compound, the “share of oral nicotine metabolized to cotinine by the liver” value in data set [1] (oral, first pass) was 60-85%. In data set [1] (oral), the nicotine bioavailability is 20-35%. In addition, the “share of oral nicotine that reaches the systemic circulation” value in data set [1] (oral) was 15-40%. Besides, the concentration at 90 min worked out at 24 ± 15 nM in the data set on CYP2A6 [2] (genotype *1/*1), 29 ± 12 nM in the data set with CYP2A6 [2] (genotype *1/*2 or *1/*3) and 52 ± 3 nM with CYP2A6 [2] (genotype *2/*2).
On to `N[C@@H]1C[C@H]1c1ccccc1` (racemic) [tranylcypromine], for which, at CYP2A6 [3], the “inhibition of CYP2A6 (in words)” value is “potent inhibitors of CYP2A6”. On CYP2A6 [4] (inhibitor dose 2.5 mg (T2.5), p=0.17), the desire to smoke entry is reported as “significant (p<0.05) decrease”. Also, the “increase in plasma nicotine” value on CYP2A6 [4] (inhibitor dose 2.5 mg) and at CYP2A6 [4] (inhibitor dose 10 mg) was approximately 100% in each case. For the same compound, the “plasma nicotine compared to placebo (in words)” value at CYP2A6 [4] (methoxsalen 3 mg, 10 mg or 30 mg, tranylcypromine 2.5 mg or 10 mg) is on record as “significantly increased”.
As to `COc1c2occc2cc2ccc(=O)oc12` [methoxsalen], on CYP2A6 [4] (inhibitor dose 10 mg (M10)), the desire to smoke result is given as “significant (p<0.05) decrease”. For the same compound, the desire to smoke entry on CYP2A6 [4] (inhibitor dose 30 mg (M30)) is “significant (p<0.05) decrease”. On CYP2A6 [5] (day 4 vs placebo day), the “decrease in breath CO” value was 11% and the “increase in plasma nicotine” value amounted to 17%. In addition, on CYP2A6 [5] (treatment day 4), the “breath CO” value is 20.5 ppm and the plasma nicotine stood at 27 ng/mL.
`O=c1ccc2cc(O)c(O)cc2o1` [esculetin]: the “inhibition of nicotine metabolism by CYP2A6 (in words)” value on CYP2A6 [6] is “potent inhibitor of CYP2A6”.
Consider `O=c1ccc2ccccc2o1` [coumarin], for which the “inhibition of nicotine metabolism to cotinine” value against CYP2A6 [7] is recorded as 84%±11%.

(Values after patent US7371414B2, “Therapeutic and diagnostic methods dependent on CYP2A enzymes” (Nicogen, Inc., priority 1997, dated 2008).)
